These results are taken from patent US20200339511A1, “Substituted indoline derivatives as dengue viral replication inhibitors” (priority 2016, published 2020).

For orientation: CC50 means the concentration at which the toxic effect on the cells reaches its halfway point. A word on the EC50: it is the concentration needed to bring the measured effect to its halfway point.

Like-named read-outs stand apart in the source and are kept apart here.

One data set has as its system Vero cells. The conditions noted are these: African green monkey.
For a further data set, the system named is DENV-4 strain H241. Description: Tetravalent RT-qPCR assay, serotype 4. In kind it is cell-based, Dengue virus. The conditions noted are these: Dengue virus, DENV4, Vero, 72 h, RT-qPCR serotype 4 H241, Protocol A, Vero cells, day 3. Here is the method:
(§1) Tetravalent reverse transcriptase quantitative-PCR (RT-qPCR) assay The antiviral activity of the compounds of the invention was tested against DENV-1 strain TC974#666 (NCPV), DENV-2 strain 16681, DENV-3 strain H87 (NCPV) and DENV-4 strain H241 (NCPV) in a RT-qPCR assay. Therefore, Vero cells were infected with either DENV-1, or -2, or -3, or -4 in the presence or absence of test compounds. At day 3 post-infection, the cells were lysed and cell lysates were used to prepare cDNA of both a viral target (the 3′UTR of DENV; Table 2) and a cellular reference gene (β-actin, Table 2). Subsequently, a duplex real time PCR was performed on a Lightcycler480 instrument. The generated Cp value is inversely proportional to the amount of RNA expression of these targets. Inhibition of DENV replication by a test compound results in a shift of Cp's for the 3′UTR gene. On the other hand, if a test compound is toxic to the cells, a similar effect on β-actin expression will be observed. The comparative ΔΔCp method is used to calculate EC50, which is based on the relative gene expression of the target gene (3′UTR) normalized with the cellular housekeeping gene (β-actin). In addition, CC50 values are determined based on the Cp values acquired for the housekeeping gene β-actin.
(§2) The culture medium consisted of minimal essential medium supplemented with 2% of heat-inactivated fetal calf serum, 0.04% gentamycin (50mg/mL) and 2 mM of L-glutamine. Vero cells, obtained from ECACC, were suspended in culture medium and 75 μL/well was added in 96-well plates (10000 cells/well), which already contain the antiviral compounds. […] In addition, each plate contains wells which are assigned as virus controls (containing cells and virus in the absence of compound) and cell controls (containing cells in the absence of virus and compound). Once the cells were added in the plates, the plates were incubated in a fully humidified incubator (37° C., 5% CO2) until the next day. Dengue viruses serotype-1, 2, 3 and 4 were diluted in order to obtain a Cp of ˜22-24 in the assay. Therefore, 25 μL of virus suspension was added to all the wells containing test compound and to the wells assigned as virus control. In parallel, 25 μL of culture medium was added to the cell controls. Next, the plates were incubated for 3 days in a fully humidified incubator (37° C., 5% CO2). After 3 days, the supernatant was removed from the wells and the cells were washed twice with ice-cold PBS (˜100 μL). The cell pellets within the 96-well plates were stored at −80° C. for at least 1 day. Next, RNA was extracted using the Cells-to-CT™ lysis kit, according to the manufacturer's guideline (Life Technologies). The cell lysates can be stored at −80° C. or immediately used in the reverse transcription step.
(§3) In preparation of the reverse transcription step, mix A (table 3A) was prepared and 7.57 μL/well was dispensed in a 96-well plate. After addition of 5 μL of the cell lysates, a five minute denaturation step at 75° C. was performed (table 3B). Afterwards, 7.43 μL of mix B was added (table 3C) and the reverse transcription step was initiated (table 3D) to generate cDNA.
(§4) Finally, a RT-qPCR mix was prepared, mix C (table 4A), and 22.02 μL/well was dispensed in 96-well LightCycler qPCR plates to which 3μL of cDNA was added and the qPCR was performed according to the conditions in table 4B on a LightCycler 480.
(§5) Using the LightCycler software and an in-house LIMS system, dose response curves for each compound were calculated and the half maximal effective concentration (EC50) and the half maximal cytotoxic concentration (CC50) were determined (Tables 5-8).
Background: In qPCR the cycle at which signal appears reflects the starting amount.

The subject of a further data set is DENV-2 strain 16681. Description: Tetravalent RT-qPCR assay, serotype 2. In kind it is cell-based, Dengue virus. The settings on record: Dengue virus, DENV2, Vero, 72 h, RT-qPCR serotype 2 16681, Protocol A, Vero cells, day 3. On the procedure: as §1, §2, §3, §4, §5
The subject of a further data set is DENV-1 strain TC974#666. Description: Tetravalent RT-qPCR assay, serotype 1. The conditions noted are these: Dengue virus, DENV1, Vero, 72 h, RT-qPCR serotype 1 TC974#666, Protocol A, Vero cells, day 3. Format: cell-based, Dengue virus. Here is the method:
as §1, §2, §3, §4, §5

A further data set is described as follows: in vitro. Format: cell-based. The settings on record: African green monkey. Here is the method: as §1, §2, §5
In a further data set the test system is DENV-2 16681 strain. Description: DENV-2 antiviral assay (eGFP-labeled virus in Vero cells). The conditions noted are these: DENV-2 16681 eGFP, MOI 0.5, 3 days. In kind it is cell-based, Dengue virus.
The next data set relates to DENV-3 strain H87. Description: Tetravalent RT-qPCR assay, serotype 3. The settings on record: Dengue virus, DENV3, Vero, 72 h, RT-qPCR serotype 3 H87, Protocol A, Vero cells, day 3. In kind it is cell-based, Dengue virus. On the procedure:
as §1, §2, §3, §4, §5

In another data set the test system is DENV-2. The settings on record: analogous DENV-2 antiviral assay, reported activity; cited from earlier work.

For the compound `COc1cc(NC(C(=O)N2CCc3cc(OC)c(C(F)(F)F)cc32)c2ccc(Cl)cc2)cc(OCCO)c1` (single isomer, unassigned) [Compound 7B, 2-(4-chlorophenyl)-2-((3-(2-hydroxyethoxy)-5-methoxyphenyl)amino)-1-(5-methoxy-6-(trifluoromethyl)indolin-1-yl)ethanone], in the data set with Vero cells, the CC50 amounted to 12 µM. The EC50 amounted to 120 nM in the data set with DENV-4 strain H241 (read-out: EC50); 0.96 nM in the data set on DENV-2 strain 16681; 5.1 nM with DENV-1 strain TC974#666; 1 nM in the data set with DENV-2 16681 strain; 30 nM in the data set with DENV-3 strain H87. This compound also displayed a 50% cytotoxic concentration (CC50) at 3 days in the data set “in vitro” of 4.1 µM.
As to `COc1cc(NC(C(=O)N2CCc3cc(OC)c(OC(F)(F)F)cc32)c2ccc(Cl)cc2)cc(OCCO)c1` (single isomer, unassigned) [Compound 13A, 2-(4-chlorophenyl)-2-((3-(2-hydroxyethoxy)-5-methoxyphenyl)amino)-1-(5-methoxy-6-(trifluoromethoxy)indolin-1-yl)ethanone], the midpoint of cytotoxicity with Vero cells, the CC50, lay at 12 µM. For the same compound, the EC50 in the data set on DENV-4 strain H241 was determined as 270 nM; in the data set with DENV-2 strain 16681 it was 1.5 nM; with DENV-1 strain TC974#666 it was 6.3 nM; with DENV-2 16681 strain, 3.5 nM; with DENV-3 strain H87, 43 nM. The compound further yielded a CC50 at 3 days in the data set “in vitro” of more than 2.5 µM.
Take `COc1cccc(NC(C(=O)N2CCc3ccccc32)c2ccccc2)c1` (stereo not shown) [(56) of WO-2013/045516]: the EC50 with DENV-2 is 450 nM.
As to `CNC(=O)c1cccc(NC(C(=O)c2c[nH]c3ccccc23)c2ccccc2)c1` (stereo not shown) [(170) of WO-2013/045516], in the data set on DENV-2, the EC50 was 440 nM.
